In patent US20230348473A1, “SUBSTITUTED PYRIDINES AS PARP1 INHIBITORS” (Xinthera, Inc., priority 2022, published 2023):

Assays:
[1] = HLM metabolic stability, predicted human hepatic clearance; format: in vitro ADME; details: well-stirred model, 1 μM
Description: Working stocks of individual test articles were prepared at a concentration of 100 μM by diluting 10 mM stocks prepared in DMSO 100-fold (v:v) into ACN. Thawed hepatic microsomes were suspended in 100 mM potassium phosphate buffer, pH 7.4 to a microsomal protein concentration of 0.562 mg/mL. Diluted microsomes were combined with a solution of 10 mM NADPH, and the mixture was pre-warmed to 37° C. for 8 min. Reactions were initiated by addition of the test article working stocks to achieve a final test article concentration of 1 μM. Final microsomal protein and NADPH concentrations were 0.5 mg/mL and 1 mM, respectively. Incubations containing NADPH were run in duplicate. Test article losses mediated by non-CYP mechanisms were evaluated in a parallel set of incubations run in the absence of NADPH. Incubations lacking NADPH consisted of 1 replicate per test article. Following incubation in a 37° C. water bath, aliquots of individual reactions were quenched with cold ACN containing internal standards at […], 15-, 30-, 60-, 90-, and 120-min. Precipitated protein was pelleted via refrigerated centrifugation. Supernatants were diluted into an equal volume of pure water and mixed well prior to analysis via LC-MS/MS. In vitro intrinsic clearances (CLint) in μL/min/mg were determined for each incubation from calculated in vitro half-lives determined using a standard log-linear regression approach. In vitro CLint values were scaled up using the following physiological scaling factors: 40 mg microsomal protein/g human liver and 25.7 g human liver/kg body weight.

[2] = Caco-2 bidirectional permeability; format: in vitro ADME; details: human; for Papp A→B at 2 h, 5 μM: apical-to-basolateral, read-out: Caco-2 AB; for Papp B→A at 2 h, 5 μM: basolateral-to-apical, read-out: Caco-2 BA; for efflux ratio at 2 h, 5 μM: efflux ratio Papp (B-to-A)/Papp (A-to-B)
Description: Following a 1-hr. equilibration period in cell culture medium maintained at 37° C. in an incubator containing a 5% CO2 atmosphere at 95% relative humidity, Corning 96-well HTS Transwell® permeable support plates were seeded with 34,300 Caco-2 cells (ATCC) per well. Following seeding, plates were cultured for 14-18 days with cell culture medium replacement every other day beginning no later than 24 hr. after plating. Monolayer barrier integrity was monitored during the culture period using transepithelial electrical resistance (TEER) measurements taken with a Millicell Epithelial Volt-Ohm system. Caco-2 monolayers were considered ready for use when the TEER value >230 ohm·cm^2. Working stocks of individual test articles were prepared at a concentration of 5 μM by diluting 1 mM stocks prepared in DMSO into 10 mM HEPES. Prior to conducting the assay, Caco-2 plates were washed twice with prewarmed 10 mM HEPES and then equilibrated in 10 mM HEPES for 30 min. at 37° C. Following equilibration, test article flux was tested bidirectionally (in both the apical-to-basolateral and basolateral-to-apical directions) by adding test article working stocks to either the apical or basolateral chambers. Blank 10 mM HEPES was added to the opposite sides. Plates were then incubated at 37° C. for 2 hours. At the end of the incubation, aliquots from both sides of each monolayer were quenched with 4 volumes of ACN containing internal standards. Following a centrifugation step, supernatants were diluted with pure water prior to analysis via LC-MS/MS.
Apparent permeability (Papp, ×10^−6 cm/s) was calculated for all transport assays using the following equation: […]
Where: Papp is apparent permeability (×10^−6 cm/s). • dQ/dt is the rate of drug transport (pmol/s). • A is the surface area of the membrane (cm^2). • D0 is the initial donor concentration (nM; pmol/cm^3).
Efflux ratio was determined by calculating the ratio of the Papp in the basolateral-to-apical direction to the Papp in the apical-to-basolateral direction using the following equation: […]
Where: Papp (B-to-A) is the apparent permeability in the basolateral-to-apical direction. • Papp (A-to-B) is the apparent permeability in the apical-to-basolateral direction.

[3] = hHEP metabolic stability, predicted human hepatic clearance; format: in vitro ADME; details: well-stirred model, 1 μM
Description: Working stocks of individual test articles were prepared at concentrations of 100 μM by diluting 10 mM stocks prepared in DMSO 100-fold (v:v) into ACN/H2O (50/50, v:v). Human cryopreserved hepatocytes were thawed in a 37° C. water bath in <2 min., suspended in thawing media, and then centrifuged at 100×g for 10 min. Thawing media was aspirated, and pelleted hepatocytes were resuspended into incubation media at 1.5×10^6 cells/mL. Cell viability was determined using an Acridine Orange/Propidium Iodine stain, and hepatocytes were further diluted with incubation media to 0.5×10^6 viable cells/mL. Hepatocyte aliquots of 198 μL were added to wells of a 96-well plate, and test article incubations were initiated by the addition of 2 μL of 100 μM working stocks. Plates were incubated at 37° C. in a 5% CO2 atmosphere at 95% relative humidity on an orbital shaker at 300 rpm. Incubations were performed in duplicate. Following incubation, aliquots of individual reactions were terminated by addition of ACN containing internal standards at 0, 30-, 60-, 90-, 120-, and 240-min. Precipitated protein was pelleted via refrigerated centrifugation. Supernatants were diluted into an equal volume of pure water and mixed well prior to analysis via LC-MS/MS. In vitro intrinsic clearances (CLint) in μL/min/10^6 cells were determined for each incubation from calculated in vitro half-lives determined using a standard log-linear regression approach. In vitro CLint values were scaled up using the following physiological scaling factors: 99×10^6 cells/g human liver and 25.7 g human liver/kg body weight.

PARP2 = PARP2 (Homo sapiens (Human), UniProt Q9UGN5); test: Biochemical fluorescence polarization (FP) assay, PARPi-FL displacement, PARP2; format: binding; details: 20 nM protein, 3 nM PARPi-FL, 4 h
Chain of PARP2 (Q9UGN5 whole entry): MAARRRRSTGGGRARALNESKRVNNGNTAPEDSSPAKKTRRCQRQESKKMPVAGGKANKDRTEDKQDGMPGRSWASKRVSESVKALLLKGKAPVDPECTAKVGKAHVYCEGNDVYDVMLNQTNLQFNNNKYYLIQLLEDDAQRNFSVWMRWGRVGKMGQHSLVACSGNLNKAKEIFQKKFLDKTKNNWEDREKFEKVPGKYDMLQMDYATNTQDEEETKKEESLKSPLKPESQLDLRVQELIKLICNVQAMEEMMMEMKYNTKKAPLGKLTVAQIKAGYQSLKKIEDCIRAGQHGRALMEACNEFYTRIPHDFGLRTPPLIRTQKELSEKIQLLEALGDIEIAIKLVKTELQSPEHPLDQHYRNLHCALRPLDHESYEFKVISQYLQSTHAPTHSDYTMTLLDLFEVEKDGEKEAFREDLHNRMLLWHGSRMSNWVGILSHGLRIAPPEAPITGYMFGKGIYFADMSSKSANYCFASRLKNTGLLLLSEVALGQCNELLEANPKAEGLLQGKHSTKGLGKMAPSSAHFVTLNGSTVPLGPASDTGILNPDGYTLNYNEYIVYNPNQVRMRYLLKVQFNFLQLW
Description: (§1) To characterize our compounds, we utilized an assay measuring the displacement of a commercially available fluorescently labeled PARP 1/2 inhibitor (PARPi-FL, Tocris Biosciences, #6461) as exemplified in assays performed in WO2014/064149 and WO2021/013735A1. The assay was performed utilizing the following method: Compounds were dissolved in DMSO an Echo550 liquid handler was utilized to make serial dilations in the desired concentration range in Optiplate-384F plates. 100% DMSO was used for the high (with protein) and low (without protein) control samples. 20 nL of compound or DMSO alone was added to individual assay plate wells. […] The PARPi-FL was then added at a final concentration of 3 nM. The assay plate is centrifuged at 1000 rpm for 1 min and incubated for 4 h at room temperature. […] XLFit (equation 201) is used to calculate a reported IC50 for each compound.

PARP1 = PARP1 (Homo sapiens (Human), UniProt P09874); test: Biochemical fluorescence polarization (FP) assay, PARPi-FL displacement, PARP1; format: binding; details: 20 nM protein, 3 nM PARPi-FL, 4 h
Chain of PARP1 (P09874 whole entry): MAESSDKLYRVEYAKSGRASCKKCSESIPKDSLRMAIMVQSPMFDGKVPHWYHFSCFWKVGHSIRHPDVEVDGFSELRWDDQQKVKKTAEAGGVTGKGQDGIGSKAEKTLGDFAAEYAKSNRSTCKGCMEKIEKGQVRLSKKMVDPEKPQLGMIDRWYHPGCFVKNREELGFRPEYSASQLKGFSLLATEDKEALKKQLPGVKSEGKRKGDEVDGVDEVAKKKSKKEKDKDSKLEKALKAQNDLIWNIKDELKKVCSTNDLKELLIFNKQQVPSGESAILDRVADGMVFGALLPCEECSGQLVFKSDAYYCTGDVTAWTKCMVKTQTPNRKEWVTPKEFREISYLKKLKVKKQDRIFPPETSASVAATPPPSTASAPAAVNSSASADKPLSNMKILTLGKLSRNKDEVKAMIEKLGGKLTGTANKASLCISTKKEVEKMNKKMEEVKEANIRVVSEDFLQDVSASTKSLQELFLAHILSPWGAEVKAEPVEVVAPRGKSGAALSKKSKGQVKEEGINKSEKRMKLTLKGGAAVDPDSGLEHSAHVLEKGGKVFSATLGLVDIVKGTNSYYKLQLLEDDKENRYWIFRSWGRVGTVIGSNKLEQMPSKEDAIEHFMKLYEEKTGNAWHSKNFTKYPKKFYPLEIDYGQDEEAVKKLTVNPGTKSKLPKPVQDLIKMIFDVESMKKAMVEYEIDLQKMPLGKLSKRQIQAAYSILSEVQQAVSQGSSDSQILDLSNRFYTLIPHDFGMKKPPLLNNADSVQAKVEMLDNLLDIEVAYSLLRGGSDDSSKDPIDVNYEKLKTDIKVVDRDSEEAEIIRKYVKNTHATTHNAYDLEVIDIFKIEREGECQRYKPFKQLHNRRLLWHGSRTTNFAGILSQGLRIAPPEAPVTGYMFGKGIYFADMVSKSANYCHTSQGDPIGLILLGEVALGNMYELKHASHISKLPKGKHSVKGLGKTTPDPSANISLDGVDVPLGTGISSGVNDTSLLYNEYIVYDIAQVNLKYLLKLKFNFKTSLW
Description: as §1

Structure (SMILES) | HLM Clh [1] [L/h/kg] | Papp A→B at 2 h, 5 μM [2] [nm/s] | Papp B→A at 2 h, 5 μM [2] [nm/s] | HHEP Clh [3] [L/h/kg] | efflux ratio at 2 h, 5 μM [2] | IC50 (PARP2) [µM] | IC50 (PARP1) [µM]
CNC(=O)c1ccc(N2CCN(Cc3ccc4c5c(c(=O)[nH]c4c3)CCO5)CC2)c(C)n1 [Comp. Ex. 1, N,6-dimethyl-5-[4-({4-oxo-2H,3H,5H-furo[3,2-c]quinolin-7-yl}methyl)piperazin-1-yl]pyridine-2-carboxamide] | <0.24 | 25 | 262 | <0.198 | – | – | –
CNC(=O)c1ccc(N2CCN(Cc3ccc4c5c(c(=O)[nH]c4c3)CCO5)CC2)c(Cl)n1 [Comp. Ex. 2, 6-chloro-N-methyl-5-[4-({4-oxo-2H,3H,5H-furo[3,2-c]quinolin-7-yl}methyl)piperazin-1-yl]pyridine-2-carboxamide] | 0.252 | 24 | 219 | 0.396 | 9.3 | – | –
CNC(=O)c1ccc(N2CCN(Cc3cc(F)c4c5c(c(=O)[nH]c4c3)COC5)CC2)c(F)n1 [Comp. Ex. 3, 6-fluoro-5-(4-((9-fluoro-4-oxo-1,3,4,5-tetrahydrofuro[3,4-c]quinolin-7-yl)methyl)piperazin-1-yl)-N-methylpicolinamide] | 0.432 | 8 | 55 | 0.426 | 7.3 | – | –
CNC(=O)c1ccc(N2CCN(Cc3ccc4c5c(c(=O)[nH]c4c3F)CCC5)CC2)c(F)n1 [Comp. Ex. 4] | 0.69 | 115 | 145 | 0.87 | – | – | –
O=C(NC1CC1)c1ccc(N2CCN(Cc3ccc4c([nH]c(=O)c5ccnn54)c3F)CC2)c(F)n1 [Example 3] | – | – | – | – | – | > 100 | 0.022
Cc1cc2c(=O)[nH]c3c(F)c(CN4CCN(c5ccc(C(=O)NC6CC6)nc5F)CC4)ccc3n2n1 [Example 4] | – | – | – | – | – | > 100 | 0.016
CNC(=O)c1ccc(N2CCN(Cc3ccc4c([nH]c(=O)c5cc(C)nn54)c3F)CC2)c(F)n1 [Example 5] | – | – | – | – | – | > 100 | 0.041
CNC(=O)c1ccc(N2CCN(Cc3ccc4c([nH]c(=O)c5ccoc54)c3F)CC2)c(F)n1 [Example 6, 6-fluoro-5-[4-({6-fluoro-4-oxo-5H-furo[3,2-c]quinolin-7-yl}methyl)piperazin-1-yl]-N-methylpyridine-2-carboxamide] | – | – | – | – | – | > 100 | 0.021
CNC(=O)c1ccc(N2CCN(Cc3ccc4c([nH]c(=O)n5cccc45)c3F)CC2)c(F)n1 [Example 7, 6-fluoro-5-[4-({7-fluoro-5-oxo-6H-pyrrolo[1,2-c]quinazolin-8-yl}methyl)piperazin-1-yl]-N-methylpyridine-2-carboxamide] | – | – | – | – | – | > 100 | 0.018
O=C(NCC(F)F)c1ccc(N2CCN(Cc3ccc4c([nH]c(=O)c5ccoc54)c3F)CC2)c(F)n1 [Example 11] | – | – | – | – | – | > 100 | 0.014
Cc1cc2c(=O)[nH]c3c(F)c(CN4CCN(c5ccc(C(=O)NCC(F)F)nc5F)CC4)ccc3n2n1 [Example 13] | – | – | – | – | – | > 100 | 0.025
O=C(NC1CC1)c1ccc(N2CCN(Cc3ccc4c([nH]c(=O)c5ccoc54)c3F)CC2)c(F)n1 [Example 14] | – | – | – | – | – | > 100 | 0.01
O=C(NCC(F)F)c1ccc(N2CCN(Cc3ccc4c5c(c(=O)[nH]c4c3F)CCO5)CC2)c(F)n1 [Example 15] | – | – | – | – | – | > 100 | 0.012
COCCNC(=O)c1ccc(N2CCN(Cc3ccc4c([nH]c(=O)c5cc(C)nn54)c3F)CC2)c(F)n1 [Example 17] | – | – | – | – | – | > 100 | 0.014
CNC(=O)c1ccc(N2CCN(Cc3ccc4c([nH]c(=O)c5cnn(C)c54)c3F)CC2)c(F)n1 [Example 19, 6-fluoro-5-[4-({6-fluoro-1-methyl-4-oxo-5H-pyrazolo[4,3-c]quinolin-7-yl}methyl)piperazin-1-yl]-N-methylpyridine-2-carboxamide] | – | – | – | – | – | > 100 | 0.1
CNC(=O)c1ccc(N2CCN(Cc3ccc4c([nH]c(=O)c5cn(C)nc54)c3F)CC2)c(F)n1 [Example 20, 6-fluoro-5-[4-({6-fluoro-2-methyl-4-oxo-5H-pyrazolo[4,3-c]quinolin-7-yl}methyl)piperazin-1-yl]-N-methylpyridine-2-carboxamide] | – | – | – | – | – | > 100 | 0.011
CNC(=O)c1ccc(N2CCN(Cc3ccc4c([nH]c(=O)c5c(C)cnn54)c3F)CC2)c(F)n1 [Example 23] | – | – | – | – | – | > 100 | 0.026
CNC(=O)c1ccc(N2CCN(Cc3ccc4c5c(c(=O)[nH]c4c3F)CCO5)CC2)cn1 [Example 26] | – | – | – | – | – | > 100 | 0.013
CNC(=O)c1ccc(N2CCN(Cc3ccc4c([nH]c(=O)c5c(F)cnn54)c3F)CC2)c(F)n1 [Example 28, 5-[4-({3,6-difluoro-4-oxo-5H-pyrazolo[1,5-a]quinoxalin-7-yl}methyl)piperazin-1-yl]-6-fluoro-N-methylpyridine-2-carboxamide] | – | – | – | – | – | > 100 | 0.01
